Consider 7 molecules from US8883763B2 (Universite Joseph Fourier, priority 2010, dated 2014).

Series [1] concerns HMEC cells. As to the kind of experiment: Proliferation of HMEC cells (GI50). The settings on record: Homo sapiens, 120 h, 50 μM to 1 nM for 5 days. The class given is cell-based. The essentials:
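Cells seeded at 1,000/well (10% confluence) and exposed 5 days (120 h) to compound from 1 nM up to 50–100 μM. Live cells counted by Hoechst 33342 staining under fluorescence microscopy; GI50 is concentration halving proliferation versus control, mean of two triplicate experiments.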

Series [2] concerns bovine brain tubulin. Briefly: In vitro tubulin polymerization test (turbidimetry at 350 nm). The settings on record: molecules at 50 μM, calculated at t=3000 s, DMSO control = 100%. The class given is biochemical. The essentials: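 Bovine brain tubulin was assembled at 37 °C in BRB80 (80 mM K-PIPES pH 6.8, 1 mM MgCl2, 1 mM EGTA) with 1 mM GTP. The 50 μM tests used compounds at 50 μM, run in triplicate. Turbidity at 350 nm was read at t=3000 s and expressed relative to control taken as 100%.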

The target in series [3] is T1, PP1α (PP1CA) (Oryctolagus cuniculus, UniProt P62139).
T1 construct: purchased New England Biolabs P0754
As to the kind of experiment: Protein phosphatase test (PP1 activity, DiFMUP fluorescent substrate). Particulars: PP1CA at 80 mU, fluorescent substrate (50 μM), molecules from 50 μM to 50 nM; read-out: PP1 Inhibition IC50. The class given is biochemical. The essentials: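 PP1α (30 or 80 mU) in 100 mM Tris-HCl pH 7.5, 4 mM DTT, 0.2 mM EDTA, 0.5 mM MnCl2 was preincubated 15 min with compound (50 μM to 50 nM), then given 60 μM DiFMUP for 20 min at 37 °C. Phosphatase activity was read as fluorescence at 355-460 nm, three times in duplicate.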

Series [4] concerns HeLa cells. As to the kind of experiment: Indirect immunofluorescence: effect on HeLa cells (mitotic arrest, microtubule depolymerization). The class given is cell-based, human. Details: key to Effect on Hela at 25 μM / Effect on Hela at 100 μM / Effect on Hela at 50 and 100 μM / Effect on Hela at 50 μM: —: −: no activity on the cells at 25 μM (if there is an effect at high concentrations, this is specified in the table).; *: weak activity (MA and/or slight depolymerization of the MTs and/or slight inhibition of proliferation),; **: average activity (MA and/or moderate depolymerization of the MTs and/or moderate inhibition of proliferation),; ***: strong activity (MA and/or pronounced depolymerization of the MTs and/or pronounced inhibition of proliferation),; ****: very strong activity (MA and/or very pronounced depolymerization of the MTs and/or strong inhibition of proliferation). The settings on record: 24 hours; for Effect on Hela at 25 μM: mitotic index and/or depolymerization of the MTs. The essentials:
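HeLa cells exposed 24 h to compound (100 μM to 50 nM; primary series 1–10 μM), DMSO controls. PFA/glutaraldehyde-fixed cells immunostained for α-tubulin, actin (phalloidin) and DNA (Hoechst); fluorescence microscopy scored phenotypes and mitotic index, with mitotic index and/or MT depolymerization evaluated at 25 μM.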

One may read the GI50 as the concentration giving 50% growth inhibition. For orientation: IC50 means the concentration needed to halve the response being measured. By melting point is commonly meant the temperature of the solid-liquid transition.

T1 sequence (P62139 whole entry): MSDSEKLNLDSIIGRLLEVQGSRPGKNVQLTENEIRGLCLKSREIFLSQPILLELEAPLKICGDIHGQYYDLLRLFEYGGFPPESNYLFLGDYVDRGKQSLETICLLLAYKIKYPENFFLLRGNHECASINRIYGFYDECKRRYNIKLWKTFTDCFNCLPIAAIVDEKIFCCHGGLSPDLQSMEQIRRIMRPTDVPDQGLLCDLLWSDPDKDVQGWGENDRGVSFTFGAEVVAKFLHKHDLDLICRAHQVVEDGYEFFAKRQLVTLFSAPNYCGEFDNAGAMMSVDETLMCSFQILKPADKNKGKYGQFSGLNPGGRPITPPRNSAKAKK

Take `C#CCOc1nc(-c2ccc(OC)cc2)c([N+](=O)[O-])c2ccc(OC)cc12` [Compound 29, 7-Methoxy-3-(4-methoxyphenyl)-4-nitro-1-(prop-2ynyloxy)isoquinoline]: the melting point lay within 177 to 179 °C. Also, the GI50 in series [1] is more than 50 µM. The Tubulin polymerization inhibition result in series [2] was “+ ((+) signifies that the molecule induces tubulin assembly inhibition in vitro comprised between 6 and 25% of the DMSO control.)”. Moreover, in series [3], the IC50 is not below 50 µM. The “Effect on Hela at 25 μM” value in series [4] is recorded as “—”.
The molecule `COc1ccc(-c2nc(NCc3ccccc3)c3cc(OC)ccc3c2[N+](=O)[O-])cc1` [Compound 22, N-Benzyl-N-[7-methoxy-3-(4-methoxyphenyl)-4-nitroisoquinoline-1-yl]-amine] registered a melting point of 199 to 201 °C. The concentration for 50% growth inhibition (GI50) in series [1] was more than 50 µM. Further, in series [2], the Tubulin polymerization inhibition result is “+ ((+) signifies that the molecule induces tubulin assembly inhibition in vitro comprised between 6 and 25% of the DMSO control.)”. The IC50 in series [3] was not above 9 µM. Also, the “Effect on Hela at 25 μM” value in series [4] is “—”.
With `COc1ccc(-c2[nH]c(=O)c3cc(OC)ccc3c2C=O)cc1` [Compound 25, 7-Methoxy-3-(4-methoxyphenyl)isoquinoline-1(2H)-one-4-carbaldehyde], the melting point was 232 °C. In addition, the GI50 in series [1] is 0.1 to 1 µM. The Tubulin polymerization inhibition entry in series [2] is listed as “+++ ((+++) signifies that the molecule induces tubulin assembly inhibition in vitro of more than 50% with respect to the DMSO control.)”. Besides, the 50% inhibitory concentration (IC50) in series [3] was not below 50 µM. The “Effect on Hela at 25 μM” value in series [4] is given as “****”.
The molecule `COc1ccc2cc(-c3ccc(Br)cc3)[nH]c(=O)c2c1` [Compound 32, 3-(4-Bromophenyl)-7-methoxyisoquinolin-1(2H)-one] returned a melting point of more than 250 °C. For the same molecule, the GI50 in series [1] is 0.1 to 1 µM. Further, in series [2], the Tubulin polymerization inhibition entry was “— ((−) signifies that the molecule induces little or no tubulin assembly inhibition in vitro: 0+ or − −5% of the DMSO control.)”. Moreover, the half-maximal inhibitory concentration (IC50) in series [3] lay in the range of 10 to 24 µM. Also, the “Effect on Hela at 25 μM” value in series [4] is given as “****”.
Regarding `COc1ccc2c([N+](=O)[O-])c(-c3ccc(Br)cc3)[nH]c(=O)c2c1` [Compound 34, 3-(4-Bromophenyl)-7-methoxy-4-nitroisoquinolin-1(2H)-one], the melting point lay within 222 to 224 °C. The molecule further had a GI50 in series [1] not above 0.1 µM. For the same molecule, the Tubulin polymerization inhibition entry in series [2] is on record as “+++ ((+++) signifies that the molecule induces tubulin assembly inhibition in vitro of more than 50% with respect to the DMSO control.)”. The concentration for half-maximal inhibition (IC50) in series [3] lay in the range of 25 to 50 µM. Also, the “Effect on Hela at 25 μM” value in series [4] is reported as “***”.
`C#CCn1c(-c2ccc(OC)cc2)c([N+](=O)[O-])c2ccc(OC)cc2c1=O` [Compound 28, 7-Methoxy-3-(4-methoxyphenyl)-4-nitro-2-(propargyl)isoquinolin-1(2H)-one] showed a melting point of 162 to 164 °C. The molecule also yielded a 50% growth inhibitory concentration (GI50) in series [1] of more than 50 µM. Also, the Tubulin polymerization inhibition result in series [2] was “— ((−) signifies that the molecule induces little or no tubulin assembly inhibition in vitro: 0+ or − −5% of the DMSO control.)”. Besides, in series [3], the 50% inhibitory concentration (IC50) was in the range of 25 to 50 µM. In addition, the “Effect on Hela at 25 μM” value in series [4] was “—”. Also, the “Effect on Hela at 50 and 100 μM” value in series [4] (50 and 100 μM) is reported as “**”.
In turn, `COc1ccc(-c2nc(OCC#N)c3cc(OC)ccc3c2[N+](=O)[O-])cc1` [Compound 31, 2-(7-Methoxy-3-(4-methoxyphenyl)-4-nitroisoquinolin-1-yloxy)ethanenitrile] registered a melting point of 192 to 194 °C. Besides, the concentration for 50% growth inhibition (GI50) in series [1] is more than 50 µM. In series [2], the Tubulin polymerization inhibition result was “++ ((++) signifies that the molecule induces tubulin assembly inhibition in vitro comprised between 26 and 50% of the DMSO control.)”. In addition, in series [3], the IC50 was more than 50 µM. Moreover, the “Effect on Hela at 25 μM” value in series [4] is reported as “—”.
